Reference: ChEMBL document CHEMBL3885881, “DrugMatrix”

Organism: Rattus norvegicus
Assay: DrugMatrix - Regimen: Daily Repeat
Assay type: toxicity, organism-based, Sprague-Dawley
Parameters: regimen Daily Repeat, gender Male, age 6-8 weeks
Conditions: in vivo, po, route oral GAVAGE, vehicle .5 % CMC; for BASOPHIL / EOSINOPHIL / ERYTHROCYTE COUNT / HEMATOCRIT / HEMOGLOBIN / LEUKOCYTE COUNT / LYMPHOCYTE / MEAN CORPUSCULAR HEMOGLOBIN / MEAN CORPUSCULAR HEMOGLOBIN CONCENTRATION / MEAN CORPUSCULAR VOLUME / MONOCYTE / NEUTROPHIL / PLATELET COUNT: tissue Blood; for ALANINE AMINOTRANSFERASE / ALBUMIN / ALKALINE PHOSPHATASE / ASPARTATE AMINOTRANSFERASE / BLOOD UREA NITROGEN / CHLORIDE / CHOLESTEROL / CREATINE PHOSPHOKINASE / CREATININE / GLUCOSE / PHOSPHORUS / POTASSIUM / SODIUM / TOTAL BILIRUBIN / TOTAL PROTEIN: tissue Plasma
[1] = 0 mg/kg, 72 h, dose level Control, time 3 day
[2] = 0 mg/kg, 120 h, dose level Control, time 5 day
[3] = 94 mg/kg, 72 h, dose level High, time 3 day
[4] = 94 mg/kg, 120 h, dose level High, time 5 day
[5] = […], 72 h, dose 9.4 mg/Kg, dose level Low, time 3 day
[6] = […], 120 h, dose 9.4 mg/Kg, dose level Low, time 5 day

O=C(CCCN1CC=C(n2c(=O)[nH]c3ccccc32)CC1)c1ccc(F)cc1 [DROPERIDOL]
BASOPHIL [1]: 1.52%
EOSINOPHIL [1]: 0.98%
ERYTHROCYTE COUNT [1]: 6.96 x10E6/uL
HEMATOCRIT [1]: 44.65%
HEMOGLOBIN [1]: 13.62 G/DL
LEUKOCYTE COUNT [1]: 9.83 x10E3/uL
LYMPHOCYTE [1]: 76.48%
MEAN CORPUSCULAR HEMOGLOBIN [1]: 19.57 pg
MEAN CORPUSCULAR HEMOGLOBIN CONCENTRATION [1]: 30.47 G/DL
MEAN CORPUSCULAR VOLUME [1]: 64.22 fL
MONOCYTE [1]: 2.13%
NEUTROPHIL [1]: 18.6%
PLATELET COUNT [1]: 1217.17 x10E3/uL
ALANINE AMINOTRANSFERASE [1]: 41 u/L
ALBUMIN [1]: 3.77 G/DL
ALKALINE PHOSPHATASE [1]: 411.83 u/L
ASPARTATE AMINOTRANSFERASE [1]: 62.83 u/L
BLOOD UREA NITROGEN [1]: 15.17 mg/dL
CHLORIDE [1]: 104.33 MEQ/L
CHOLESTEROL [1]: 71.17 mg/dL
CREATINE PHOSPHOKINASE [1]: 123.5 u/L
CREATININE [1]: 0.55 mg/dL
GLUCOSE [1]: 182.67 mg/dL
PHOSPHORUS [1]: 11.23 mg/dL
POTASSIUM [1]: 7.03 MEQ/L
SODIUM [1]: 148 MEQ/L
TOTAL BILIRUBIN [1]: 0.57 mg/dL
TOTAL PROTEIN [1]: 6.85 G/DL
BASOPHIL [2]: 1.35%
EOSINOPHIL [2]: 0.43%
ERYTHROCYTE COUNT [2]: 6.96 x10E6/uL
HEMATOCRIT [2]: 44.35%
HEMOGLOBIN [2]: 13.98 G/DL
LEUKOCYTE COUNT [2]: 9.45 x10E3/uL
LYMPHOCYTE [2]: 80.83%
MEAN CORPUSCULAR HEMOGLOBIN [2]: 20.1 pg
MEAN CORPUSCULAR HEMOGLOBIN CONCENTRATION [2]: 31.52 G/DL
MEAN CORPUSCULAR VOLUME [2]: 63.72 fL
MONOCYTE [2]: 2.37%
NEUTROPHIL [2]: 14.05%
PLATELET COUNT [2]: 1298 x10E3/uL
ALANINE AMINOTRANSFERASE [2]: 42.17 u/L
ALBUMIN [2]: 3.77 G/DL
ALKALINE PHOSPHATASE [2]: 419 u/L
ASPARTATE AMINOTRANSFERASE [2]: 66.67 u/L
BLOOD UREA NITROGEN [2]: 16.67 mg/dL
CHLORIDE [2]: 103.17 MEQ/L
CHOLESTEROL [2]: 66.33 mg/dL
CREATINE PHOSPHOKINASE [2]: 148.33 u/L
CREATININE [2]: 0.58 mg/dL
GLUCOSE [2]: 196.83 mg/dL
PHOSPHORUS [2]: 11.8 mg/dL
POTASSIUM [2]: 6.47 MEQ/L
SODIUM [2]: 148.33 MEQ/L
TOTAL BILIRUBIN [2]: 0.53 mg/dL
TOTAL PROTEIN [2]: 6.77 G/DL
BASOPHIL [3]: 2.03%
EOSINOPHIL [3]: 0.53%
ERYTHROCYTE COUNT [3]: 7.81 x10E6/uL
HEMATOCRIT [3]: 49.37%
HEMOGLOBIN [3]: 15.57 G/DL
LEUKOCYTE COUNT [3]: 13.33 x10E3/uL
LYMPHOCYTE [3]: 87.57%
MEAN CORPUSCULAR HEMOGLOBIN [3]: 20.1 pg
MEAN CORPUSCULAR HEMOGLOBIN CONCENTRATION [3]: 31.57 G/DL
MEAN CORPUSCULAR VOLUME [3]: 63.57 fL
MONOCYTE [3]: 2.1%
NEUTROPHIL [3]: 7%
PLATELET COUNT [3]: 1484.33 x10E3/uL
ALANINE AMINOTRANSFERASE [3]: 35.67 u/L
ALBUMIN [3]: 4.03 G/DL
ALKALINE PHOSPHATASE [3]: 335 u/L
ASPARTATE AMINOTRANSFERASE [3]: 61.67 u/L
BLOOD UREA NITROGEN [3]: 21.67 mg/dL
CHLORIDE [3]: 102.33 MEQ/L
CHOLESTEROL [3]: 79.67 mg/dL
CREATINE PHOSPHOKINASE [3]: 112.67 u/L
CREATININE [3]: 0.67 mg/dL
GLUCOSE [3]: 149 mg/dL
PHOSPHORUS [3]: 11.77 mg/dL
POTASSIUM [3]: 7.13 MEQ/L
SODIUM [3]: 148 MEQ/L
TOTAL BILIRUBIN [3]: 0.6 mg/dL
TOTAL PROTEIN [3]: 7.1 G/DL
BASOPHIL [4]: 1.4%
EOSINOPHIL [4]: 0.5%
ERYTHROCYTE COUNT [4]: 8.34 x10E6/uL
HEMATOCRIT [4]: 50.33%
HEMOGLOBIN [4]: 16.1 G/DL
LEUKOCYTE COUNT [4]: 13.23 x10E3/uL
LYMPHOCYTE [4]: 84.5%
MEAN CORPUSCULAR HEMOGLOBIN [4]: 19.37 pg
MEAN CORPUSCULAR HEMOGLOBIN CONCENTRATION [4]: 32.03 G/DL
MEAN CORPUSCULAR VOLUME [4]: 60.43 fL
MONOCYTE [4]: 2.13%
NEUTROPHIL [4]: 10.53%
PLATELET COUNT [4]: 1440.33 x10E3/uL
ALANINE AMINOTRANSFERASE [4]: 53 u/L
ALBUMIN [4]: 3.87 G/DL
ALKALINE PHOSPHATASE [4]: 248 u/L
ASPARTATE AMINOTRANSFERASE [4]: 83 u/L
BLOOD UREA NITROGEN [4]: 23.33 mg/dL
CHLORIDE [4]: 103 MEQ/L
CHOLESTEROL [4]: 68 mg/dL
CREATINE PHOSPHOKINASE [4]: 108.67 u/L
CREATININE [4]: 0.67 mg/dL
GLUCOSE [4]: 160.67 mg/dL
PHOSPHORUS [4]: 12.3 mg/dL
POTASSIUM [4]: 7.17 MEQ/L
SODIUM [4]: 149 MEQ/L
TOTAL BILIRUBIN [4]: 0.67 mg/dL
TOTAL PROTEIN [4]: 6.93 G/DL
BASOPHIL [5]: 1.77%
EOSINOPHIL [5]: 0.47%
ERYTHROCYTE COUNT [5]: 7.08 x10E6/uL
HEMATOCRIT [5]: 45.83%
HEMOGLOBIN [5]: 14.3 G/DL
LEUKOCYTE COUNT [5]: 15.23 x10E3/uL
LYMPHOCYTE [5]: 83.7%
MEAN CORPUSCULAR HEMOGLOBIN [5]: 20.13 pg
MEAN CORPUSCULAR HEMOGLOBIN CONCENTRATION [5]: 31.1 G/DL
MEAN CORPUSCULAR VOLUME [5]: 64.77 fL
MONOCYTE [5]: 1.6%
NEUTROPHIL [5]: 11.93%
PLATELET COUNT [5]: 1499.67 x10E3/uL
ALANINE AMINOTRANSFERASE [5]: 36.67 u/L
ALBUMIN [5]: 3.67 G/DL
ALKALINE PHOSPHATASE [5]: 351.67 u/L
ASPARTATE AMINOTRANSFERASE [5]: 62.33 u/L
BLOOD UREA NITROGEN [5]: 14 mg/dL
CHLORIDE [5]: 103.67 MEQ/L
CHOLESTEROL [5]: 70.33 mg/dL
CREATINE PHOSPHOKINASE [5]: 125.33 u/L
CREATININE [5]: 0.6 mg/dL
GLUCOSE [5]: 162.33 mg/dL
PHOSPHORUS [5]: 12.83 mg/dL
POTASSIUM [5]: 7.2 MEQ/L
SODIUM [5]: 147.67 MEQ/L
TOTAL BILIRUBIN [5]: 0.5 mg/dL
TOTAL PROTEIN [5]: 6.57 G/DL
BASOPHIL [6]: 2.17%
EOSINOPHIL [6]: 0.4%
ERYTHROCYTE COUNT [6]: 6.89 x10E6/uL
HEMATOCRIT [6]: 44.3%
HEMOGLOBIN [6]: 14.03 G/DL
LEUKOCYTE COUNT [6]: 11 x10E3/uL
LYMPHOCYTE [6]: 83.27%
MEAN CORPUSCULAR HEMOGLOBIN [6]: 20.4 pg
MEAN CORPUSCULAR HEMOGLOBIN CONCENTRATION [6]: 31.7 G/DL
MEAN CORPUSCULAR VOLUME [6]: 64.43 fL
MONOCYTE [6]: 2.07%
NEUTROPHIL [6]: 11.2%
PLATELET COUNT [6]: 1298.67 x10E3/uL
ALANINE AMINOTRANSFERASE [6]: 37.67 u/L
ALBUMIN [6]: 3.63 G/DL
ALKALINE PHOSPHATASE [6]: 359 u/L
ASPARTATE AMINOTRANSFERASE [6]: 62.33 u/L
BLOOD UREA NITROGEN [6]: 13.33 mg/dL
CHLORIDE [6]: 101.33 MEQ/L
CHOLESTEROL [6]: 65 mg/dL
CREATINE PHOSPHOKINASE [6]: 109 u/L
CREATININE [6]: 0.5 mg/dL
GLUCOSE [6]: 191 mg/dL
PHOSPHORUS [6]: 12.2 mg/dL
POTASSIUM [6]: 7.17 MEQ/L
SODIUM [6]: 147.33 MEQ/L
TOTAL BILIRUBIN [6]: 0.3 mg/dL
TOTAL PROTEIN [6]: 6.4 G/DL
